Active and inactive are the calls of the source. The rule behind the calls is not given here.
What was measured:
Type in all cases: functional, cell-based
[1] = test system: PC-3; assay: Antiproliferative activity against Homo sapiens (human) PC3 cells at 50 uM after 72 hr by MTT assay
[2] = test system: PC-3; assay: Antimigratory activity against Homo sapiens (human) PC3 cells at 50 uM after 24 hr by wound-healing assay
[3] = test system: PC-3; assay: Antiproliferative activity against Homo sapiens (human) PC3 cells at 1 uM after 72 hr by MTT assay
[4] = test system: PC-3; assay: Antimigratory activity against Homo sapiens (human) PC3 cells at 200 uM after 24 hr by wound-healing assay
[5] = test system: PC-3; assay: Antiproliferative activity against Homo sapiens (human) PC3 cells at 10 uM after 72 hr by MTT assay

In the case of `Cc1c([C@H](C)[C@@H]2NC[C@@H](C)C[C@H]2O)ccc2c1C[C@H]1[C@H]2CCC2=CC(=O)C=C[C@@]21C`, the Activity [1] is reported as “Active” and the Activity [2] is reported as “Active”.

With `CC1=C2C(=O)[C@H]3[C@@H](CC[C@H]4C[C@@H](O)CC[C@@]43C)[C@@H]2CC[C@]12O[C@@H]1C[C@H](C)CN[C@H]1[C@H]2C` the Activity [1] was “Active” and the Activity [2] was “inactive”.

With `C/C1=C/C(=O)O[C@@H]2C[C@@H](CC[C@H](C)/C=C\C=C\CC1)O[C@@](O)([C@@H]1CSC(=O)N1)C2` the Activity [3] was “Active”.

For `CC1=C2C(=O)[C@H]3[C@@H](CC=C4C[C@@H](O[C@@H]5O[C@H](CO)[C@@H](O)[C@H](O)[C@H]5O)CC[C@@]43C)[C@@H]2CC[C@]12O[C@@H]1C[C@H](C)CN[C@H]1[C@H]2C`, the Activity [1] was “inactive” and the Activity [2] was “inactive”.

In the case of `CC1=C2C(=O)[C@H]3[C@@H](CC=C4C[C@@H](O)CC[C@@]43C)[C@@H]2CC[C@]12O[C@@H]1C[C@H](C)CN[C@H]1[C@H]2C`, the Activity [1] is reported as “Active” and the Activity [2] is reported as “Active”.

`Cc1c([C@H](C)[C@@H]2NC[C@@H](C)C[C@H]2O)ccc2c1C[C@H]1[C@H]2CC=C2C[C@@H](O)CC[C@@]21C` was tested, and the Activity [1] was “Active” and the Activity [2] was “Active”.

In the case of `Cc1c([C@H](C)[C@@H]2NC[C@@H](C)C[C@H]2O)ccc2c1C[C@H]1[C@H]2CC[C@H]2CC(=O)CC[C@@]21C`, the Activity [1] is reported as “Active” and the Activity [2] is reported as “Active”.

In the case of `CC1=C2C(=O)[C@H]3[C@@H](CC=C4CC(=O)CC[C@@]43C)[C@@H]2CC[C@]12O[C@@H]1C[C@H](C)CN[C@H]1[C@H]2C`, the Activity [1] is reported as “Active” and the Activity [2] is reported as “Active”.

For `O=C1NC(=O)/C(=C/c2ccc(O)cc2)N1`, the Activity [4] was “Active”.

For `Cc1c([C@H](C)[C@@H]2NC[C@@H](C)C[C@H]2O)ccc2c1C[C@H]1[C@H]2CCC2=CC(=O)CC[C@@]21C`, the Activity [1] was “Active”, the Activity [2] was “Active” and the Activity [5] was “Active”.

With `CC1=C2C(=O)[C@H]3[C@@H](CC[C@H]4C[C@@H](O)C[C@H](O)[C@@]43C)[C@@H]2CC[C@]12O[C@@H]1C[C@H](C)CN[C@H]1[C@H]2C` the Activity [1] was “inactive” and the Activity [2] was “Active”.

— ChEMBL document CHEMBL3045989, “The Veratrum alkaloids jervine, veratramine, and their analogues as prostate cancer migration and proliferation inhibitors: biological evaluation and pharmacophore modeling” (Med Chem Res, 2013)
